This assay has as its target T1, Human KLK1 (Homo sapiens, UniProt P06870).
T1 construct: purchased Callbiochem (Calbiochem)
Description: Determination of the IC50 for KLK1 (fluorogenic substrate H-DVal-Leu-Arg-AFC). The settings on record: 37° C. The class given is biochemical. In short, it runs like this:
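hKLK1 + H-DVal-Leu-Arg-AFC, 37° C, varied cpd conc. Initial rate by A410 change → residual activity → IC50.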

This passage reports IC50 results from patent US20100076015A1, “Aminopyridine Derivatives” (VANTIA LIMITED, priority 2008, published 2010).

T1 sequence (P06870 25-262): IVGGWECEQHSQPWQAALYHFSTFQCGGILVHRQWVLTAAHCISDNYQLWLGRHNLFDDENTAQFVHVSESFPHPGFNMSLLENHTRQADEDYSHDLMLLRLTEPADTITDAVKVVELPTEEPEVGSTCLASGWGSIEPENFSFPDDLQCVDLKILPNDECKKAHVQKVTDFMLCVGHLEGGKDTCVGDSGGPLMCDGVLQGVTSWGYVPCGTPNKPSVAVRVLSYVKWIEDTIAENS

As to `CC(C)N(C)[C@@H](C)C(=O)N[C@@H](Cc1cccc(C(F)(F)F)c1)C(=O)NCc1ccc(N)nc1` [Example 417, (S)—N-[(S)-1-[(6-Amino-pyridin-3-ylmethyl)-carbamoyl]-2-(3-trifluoromethyl-phenyl)-ethyl]-2-(isopropyl-methyl-amino)-propionamide], the IC50 (commonly the midpoint of a concentration-inhibition curve) was 0.83 nM.

On to `Cc1cc(C)c(C(=O)N[C@@H](Cc2cccc(F)c2)C(=O)NCc2ccc(N)nc2)[nH]1` [Example 236, 3,5-Dimethyl-1H-pyrrole-2-carboxylic acid [(S)-1-[(6-amino-pyridin-3-ylmethyl)-carbamoyl]-2-(3-fluoro-phenyl)-ethyl]-amide], for which the midpoint of inhibition, the IC50, lay at 9 nM.

Take `Nc1ccc(CNC(=O)[C@H](Cc2cccc3ccccc23)NC(=O)c2cc3cc(O)ccc3[nH]2)cn1` [Example 302, 5-Hydroxy-1H-indole-2-carboxylic acid {(S)-1-[(6-amino-pyridin-3-ylmethyl)-carbamoyl]-2-naphthalen-1-yl-ethyl}-amide]: the IC50 came to 7.2 nM.

In the case of `CNC(C)(C)C(=O)N[C@@H](Cc1ccc(F)c(F)c1)C(=O)NCc1ccc(N)nc1` [Example 86, N-[(S)-1-[(6-Amino-pyridin-3-ylmethyl)-carbamoyl]-2-(3,4-difluoro-phenyl)-ethyl]-2-methyl-2-methylamino-propionamide], 15.5 nM corresponded to half-maximal inhibition (IC50).

As for `CC(C(=O)N[C@@H](Cc1cc(F)cc(F)c1)C(=O)NCc1ccc(N)nc1)N1CCCCC1` (stereo partly drawn) [Example 425, N-[(S)-1-[(6-Amino-pyridin-3-ylmethyl)-carbamoyl]-2-(3,5-difluoro-phenyl)-ethyl]-2-piperidin-1-yl-propionamide], it took 14.9 nM to reach half-maximal inhibition (IC50).

For the molecule `CN1CCC[C@@H]1C(=O)N[C@@H](Cc1cccc(Cl)c1)C(=O)NCc1ccc(N)nc1` [Example 103, (R)-1-Methyl-pyrrolidine-2-carboxylic acid [(S)-1-[(6-amino-pyridin-3-ylmethyl)-carbamoyl]-2-(3-chloro-phenyl)-ethyl]-amide], the IC50 came out at 5.4 nM.

`CN(CC(=O)N[C@@H](Cc1ccc(Cl)c(Cl)c1)C(=O)NCc1ccc(N)nc1)Cc1ccccc1` [Example 152, (S)—N-(6-Amino-pyridin-3-ylmethyl)-2-[2-(benzyl-methyl-amino)-acetylamino]-3-(3,4-dichloro-phenyl)-propionamide] registered an IC50 of 5.7 nM.

In the case of `CN(C/C=C/c1ccccc1)CC(=O)N[C@@H](Cc1ccc(F)c(F)c1)C(=O)NCc1ccc(N)nc1` [Example 162, (S)—N-(6-Amino-pyridin-3-ylmethyl)-3-(3,4-difluoro-phenyl)-2-{2-[methyl-((E)-3-phenyl-allyl)-amino]-acetylamino}-propionamide], the IC50 came out at 38.1 nM.

As for `Cc1nc(N)ccc1CNC(=O)[C@H](Cc1cccc2ccccc12)NC(=O)c1cc2ccccc2[nH]1` [Example 303, 1H-Indole-2-carboxylic acid {(S)-1-[(6-amino-2-methyl-pyridin-3-ylmethyl)-carbamoyl]-2-naphthalen-1-yl-ethyl}-amide], the IC50 came to 240 nM.

`Cc1nc(N)ccc1CNC(=O)[C@H](Cc1ccc(Cl)c(Cl)c1)NC(=O)[C@H](N)Cc1ccc(F)cc1` [Example 194, (R)-2-Amino-N-[(S)-1-[(6-amino-2-methyl-pyridin-3-ylmethyl)-carbamoyl]-2-(3,4-dichloro-phenyl)-ethyl]-3-(4-fluoro-phenyl)-propionamide]: the IC50 worked out at 5.1 nM.

In the case of `Cc1nc(N)ccc1CNC(=O)[C@@H](Cc1ccc(Cl)c(Cl)c1)NC(=O)[C@H]1CCCN1C` [Example 190, (R)-1-Methyl-pyrrolidine-2-carboxylic acid [(R)-1-[(6-amino-2-methyl-pyridin-3-ylmethyl)-carbamoyl]-2-(3,4-dichloro-phenyl)-ethyl]-amide], the IC50 is 1.8 nM.

In turn, `CCC(C)[C@H](N)C(=O)N[C@@H](C(=O)NCc1ccc(N)nc1)[C@H](O)c1ccccc1` (stereo partly drawn) [Example 224, (S)-2-Amino-3-methyl-pentanoic acid {(1R,2R)-1-[(6-amino-pyridin-3-ylmethyl)-carbamoyl]-2-hydroxy-2-phenyl-ethyl}-amide] yielded an IC50 of 61.6 nM.

With `Nc1ccc(CNC(=O)[C@H](Cc2ccc(Cl)c(Cl)c2)NC(=O)[C@H]2Cc3ccccc3CN2)cn1` [Example 64, (R)-1,2,3,4-Tetrahydro-isoquinoline-3-carboxylic acid [(S)-1-[(6-amino-pyridin-3-ylmethyl)-carbamoyl]-2-(3,4-dichloro-phenyl)-ethyl]-amide], half-maximal inhibition (IC50) required 3.1 nM.

For the molecule `CC1CCCC(C)N1CC(=O)N[C@@H](Cc1ccc(Cl)cc1)C(=O)NCc1ccc(N)nc1` (stereo partly drawn) [Example 426, (S)—N-(6-Amino-pyridin-3-ylmethyl)-3-(4-chloro-phenyl)-2-[2-(2,6-dimethyl-piperidin-1-yl)-acetylamino]-propionamide], half-maximal inhibition (IC50) required 2.7 nM.

For the molecule `Cc1nc(N)ccc1CNC(=O)[C@@H](Cc1ccc(Cl)c(Cl)c1)NC(=O)[C@@H](N)c1ccccc1` [Example 197, (R)—N-(6-Amino-2-methyl-pyridin-3-ylmethyl)-2-((S)-2-amino-2-phenyl-acetylamino)-3-(3,4-dichloro-phenyl)-propionamide], the IC50 came to 84.6 nM.

The molecule “(S)—N-{(R)-1-[(6-Amino-pyridin-3-ylmethyl)-carbamoyl]-2,2-dicyclohexyl-ethyl}-2-dimethylamino-propionamide [Example 434]” showed an IC50 of 43.9 nM.

The molecule `Nc1ccc(CNC(=O)[C@H](Cc2cccc3ccccc23)NC(=O)c2ncc[nH]2)cn1` [Example 289, 1H-Imidazole-2-carboxylic acid {(S)-1-[(6-amino-pyridin-3-ylmethyl)-carbamoyl]-2-naphthalen-1-yl-ethyl}-amide] showed an IC50 of 30.5 nM.

Turning to `CCC(C)[C@H](N)C(=O)N[C@@H](Cc1ccc(F)c(F)c1)C(=O)NCc1ccc(N)nc1` (stereo partly drawn) [Example 83, (S)-2-Amino-3-methyl-pentanoic acid [(S)-1-[(6-amino-pyridin-3-ylmethyl)-carbamoyl]-2-(3,4-difluoro-phenyl)-ethyl]-amide], the midpoint of inhibition, the IC50, lay at 158 nM.

Molecule `CCCN1CCC[C@@H]1C(=O)N[C@@H](Cc1ccc(F)cc1)C(=O)NCc1ccc(N)nc1` [Example 139, (R)-1-Propyl-pyrrolidine-2-carboxylic acid [(S)-1-[(6-amino-pyridin-3-ylmethyl)-carbamoyl]-2-(4-fluoro-phenyl)-ethyl]-amide] registered an IC50 of 3.7 nM.

For `Cc1nc(N)ccc1CNC(=O)[C@H](Cc1ccc(F)c(F)c1)NC(=O)CN1C(C)CCCC1C` (stereo partly drawn) [Example 429, (S)—N-(6-Amino-2-methyl-pyridin-3-ylmethyl)-3-(3,4-difluoro-phenyl)-2-[2-(2,6-dimethyl-piperidin-1-yl)-acetylamino]-propionamide], the half-inhibitory concentration (IC50) worked out at 1.7 nM.

Regarding `CCC(C)[C@H](C(=O)N[C@@H](Cc1cc(F)cc(F)c1)C(=O)NCc1ccc(N)nc1)N(C)C` (stereo partly drawn) [Example 424, (R)-2-Dimethylamino-3-methyl-pentanoic acid [(S)-1-[(6-amino-pyridin-3-ylmethyl)-carbamoyl]-2-(3,5-difluoro-phenyl)-ethyl]-amide], inhibition was half-maximal at 28 nM (IC50).

In the case of `Cc1cc[nH]c1C(=O)N[C@@H](Cc1cccc(F)c1)C(=O)NCc1ccc(N)nc1` [Example 269, 3-Methyl-1H-pyrrole-2-carboxylic acid [(S)-1-[(6-amino-pyridin-3-ylmethyl)-carbamoyl]-2-(3-fluoro-phenyl)-ethyl]-amide], the IC50 amounted to 26.1 nM.

The molecule `CCCN(CCC)CC(=O)N[C@@H](Cc1ccc(F)c(F)c1)C(=O)NCc1ccc(N)nc1` [Example 158, (S)—N-(6-Amino-pyridin-3-ylmethyl)-3-(3,4-difluoro-phenyl)-2-(2-dipropylamino-acetylamino)-propionamide] gave an IC50 of 114 nM.

As to `CC(C)[C@H](C(=O)N[C@@H](Cc1cccc(Cl)c1)C(=O)NCc1ccc(N)nc1)N(C)C` [Example 406, (R)—N-[(S)-1-[(6-Amino-pyridin-3-ylmethyl)-carbamoyl]-2-(3-chloro-phenyl)-ethyl]-2-dimethylamino-3-methyl-butyramide], the IC50 was found to be 4.7 nM.

`Nc1ccc(CNC(=O)[C@H](Cc2ccc(F)cc2)NC(=O)c2cc3cc(F)ccc3[nH]2)cn1` [Example 331, 5-Fluoro-1H-indole-2-carboxylic acid [(S)-1-[(6-amino-pyridin-3-ylmethyl)-carbamoyl]-2-(4-fluoro-phenyl)-ethyl]-amide] yielded an IC50 of 32 nM.

With `CC(C)N[C@H](Cc1ccccc1)C(=O)N[C@@H](Cc1ccc(F)c(F)c1)C(=O)NCc1ccc(N)nc1` [Example 184, (R)—N-[(S)-1-[(6-Amino-pyridin-3-ylmethyl)-carbamoyl]-2-(3,4-difluoro-phenyl)-ethyl]-2-isopropylamino-3-phenyl-propionamide], the midpoint of inhibition, the IC50, lay at 44.4 nM.

The molecule `CNCC(=O)N[C@@H](C(=O)NCc1ccc(N)nc1)C(C1CCCCC1)C1CCCCC1` [Example 221, (R)—N-(6-Amino-pyridin-3-ylmethyl)-3,3-dicyclohexyl-2-(2-methylamino-acetylamino)-propionamide] came in with an IC50 of 50.5 nM.

In turn, `CN(C)[C@@H](Cc1ccccc1)C(=O)N[C@@H](Cc1ccc(F)c(F)c1)C(=O)NCc1ccc(N)nc1` [Example 351, (S)—N-[(S)-1-[(6-Amino-pyridin-3-ylmethyl)-carbamoyl]-2-(3,4-difluoro-phenyl)-ethyl]-2-dimethylamino-3-phenyl-propionamide] gave a 50% inhibitory concentration (IC50) of 8.8 nM.

For `CCC(C)[C@@H](N)C(=O)N[C@@H](Cc1cc(F)c(F)cc1F)C(=O)NCc1ccc(N)nc1` (stereo partly drawn) [Example 38, (R)-2-Amino-3-methyl-pentanoic acid [(S)-1-[(6-amino-pyridin-3-ylmethyl)-carbamoyl]-2-(2,4,5-trifluoro-phenyl)-ethyl]-amide], the IC50 came to 9.2 nM.

In turn, `Cc1nc(N)ccc1CNC(=O)[C@@H](Cc1ccc(Cl)c(Cl)c1)NC(=O)[C@H]1CSCN1` [Example 191, (S)-Thiazolidine-4-carboxylic acid [(R)-1-[(6-amino-2-methyl-pyridin-3-ylmethyl)-carbamoyl]-2-(3,4-dichloro-phenyl)-ethyl]-amide] had an IC50 of 33.3 nM.
